The source of these data is ChEMBL document CHEMBL1201862, “PubChem BioAssay data set” (2004).

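Compound exposure: 48 hours, 5 concentrations, 96-well plates. GI50 marks 50% less growth.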 The source made the active and inactive calls. Cut-off read from the data, not from the text of the source: active = GI50 up to about 1.1 µM and inactive = higher.

Some test systems named below: EKVX; HCT-15; HL-60; HT-29; Hs-578T; M14; MDA-MB-435; MDA-N; Malme-3M; OVCAR-3; OVCAR-5; OVCAR-8; SF-539; SK-MEL-28; SK-MEL-2; SN12C; SNB-19; TK-10; UACC-62; HCC 2998.
Assay in all cases: growth of human tumour cells (NCI), 48 h

As for `O=C(N/N=C/C=C/c1ccc([N+](=O)[O-])o1)c1ccc(Br)s1`, the GI50 was 31.2 µM (inactive) in the experiment on EKVX; 13.2 µM in the experiment on HCT-15; 34.1 µM (inactive) in the experiment with HL-60; 17 µM (inactive) with HT-29; 6.73 µM (inactive) with Hs-578T; 20.4 µM (inactive) with M14. Besides, the GI50 with MDA-MB-435 is 25.4 µM (inactive); in the experiment with MDA-N it was 20.6 µM (inactive); with Malme-3M, 14.9 µM (inactive); in the experiment on OVCAR-3, 16.1 µM (inactive); with OVCAR-5, 26.3 µM (inactive); in the experiment with OVCAR-8, 16.9 µM (inactive). For the same compound, the GI50 with SF-539 was 26.8 µM (inactive); in the experiment with SK-MEL-28 it was 22.4 µM (inactive); in the experiment with SK-MEL-2 it was 23.3 µM (inactive); with SN12C it was 29.6 µM (inactive); with SNB-19, 24 µM (inactive); in the experiment on TK-10, 20 µM (inactive). The GI50 in the experiment with UACC-62 is 23.2 µM (inactive).
For `CN1CC=C(c2cccn2C)CC1`, the GI50 is > 100 µM (inactive) in the experiment with EKVX; > 100 µM (inactive) in the experiment on HCC 2998; > 100 µM in the experiment with HCT-15; > 100 µM (inactive) with HL-60; > 100 µM (inactive) in the experiment on HT-29; > 100 µM (inactive) in the experiment on Hs-578T. Further, the GI50 in the experiment on M14, with MDA-MB-435, in the experiment on MDA-N, in the experiment on Malme-3M, in the experiment on OVCAR-3 and in the experiment on OVCAR-5 was > 100 µM (inactive) in each case. The GI50 in the experiment with OVCAR-8, in the experiment on SK-MEL-28, in the experiment with SK-MEL-2, in the experiment on SN12C, with SNB-19 and in the experiment on TK-10 was > 100 µM (inactive) each time. In addition, in the experiment on UACC-62, the GI50 is > 100 µM (inactive).
Take `COc1cc2cc(C(=O)N3CC(CCl)c4c3cc(N(C)C)c3ccccc43)[nH]c2c(OC)c1OC` (centres undefined): the GI50 in the experiment on EKVX was < 0.01 µM (active); with HCC 2998, 0.0101 µM (active); in the experiment with HCT-15 it was < 0.0115 µM; with HT-29 it was < 0.01 µM (active); with Hs-578T, 0.0199 µM (active); in the experiment on M14, < 0.01 µM (active). In addition, the GI50 with MDA-MB-435 is 0.0146 µM (active); with MDA-N, 0.0169 µM (active); with Malme-3M, 0.0321 µM (active); with OVCAR-3, 0.0127 µM (active); in the experiment on OVCAR-5, < 0.0108 µM (active); in the experiment on OVCAR-8 it was < 0.01 µM (active). Moreover, the GI50 with SF-539 is 0.0131 µM (active); in the experiment on SK-MEL-28, 0.0483 µM (active); in the experiment on SK-MEL-2, < 0.01 µM (active); in the experiment with SN12C, < 0.01 µM (active); in the experiment with SNB-19 it was 0.0124 µM (active); in the experiment with TK-10, 0.0108 µM (active). For the same compound, the GI50 with UACC-62 is < 0.01 µM (active).
As to `COP(=O)(OC)C(Cc1cn(C(C)=O)c2ccccc12)C(=O)O` (centres undefined), the GI50 is > 100 µM (inactive) with HCC 2998; > 100 µM with HCT-15; > 100 µM (inactive) in the experiment on HL-60; > 100 µM (inactive) in the experiment on HT-29; > 100 µM (inactive) in the experiment on Hs-578T; > 100 µM (inactive) in the experiment on M14. Further, the GI50 in the experiment with MDA-N, in the experiment with OVCAR-3, with OVCAR-5, in the experiment with OVCAR-8, in the experiment on SK-MEL-28 and in the experiment with SK-MEL-2 was > 100 µM (inactive) each time. The GI50 with SN12C, in the experiment on SNB-19 and in the experiment with TK-10 was > 100 µM (inactive) each time.
On to `CCSc1nc(N)c2c(-c3ccc(OC)c(OC)c3)c3c(nc2n1)CCCC3`, for which the GI50 in the experiment on EKVX is > 100 µM (inactive); in the experiment on HCT-15, > 100 µM; in the experiment with HL-60 it was > 100 µM (inactive); in the experiment on HT-29 it was > 100 µM (inactive); in the experiment on Hs-578T it was > 100 µM (inactive); with M14, > 100 µM (inactive). Moreover, the GI50 in the experiment on MDA-MB-435, in the experiment with MDA-N, in the experiment with Malme-3M, in the experiment on OVCAR-3, in the experiment with OVCAR-5 and in the experiment on OVCAR-8 was > 100 µM (inactive) each time. The GI50 in the experiment with SF-539, in the experiment with SK-MEL-28, in the experiment with SN12C, in the experiment with SNB-19, in the experiment on TK-10 and with UACC-62 was > 100 µM (inactive) in each case.
As to `CCP(=O)(CC)C(Cl)Cl`, the GI50 in the experiment with HCC 2998 is > 100 µM (inactive); with HCT-15 it was > 100 µM; in the experiment with HL-60, > 100 µM (inactive); in the experiment with HT-29, > 100 µM (inactive); in the experiment on Hs-578T, > 100 µM (inactive); in the experiment with M14, > 100 µM (inactive). The GI50 in the experiment with MDA-MB-435, in the experiment with MDA-N, in the experiment with OVCAR-3, in the experiment with OVCAR-5, in the experiment on OVCAR-8 and with SK-MEL-28 was > 100 µM (inactive) throughout. Also, the GI50 in the experiment with SK-MEL-2, in the experiment with SN12C, in the experiment on SNB-19 and in the experiment with TK-10 was > 100 µM (inactive) in each case.
Consider `CC(=O)OC(C(=O)O)C(OC(C)=O)C(OC(C)=O)C(OC(C)=O)C(=O)O` (centres undefined), for which the GI50 is > 100 µM (inactive) in the experiment on EKVX; > 100 µM in the experiment on HCT-15; > 100 µM (inactive) in the experiment on HL-60; > 100 µM (inactive) in the experiment on HT-29; > 100 µM (inactive) with Hs-578T; > 100 µM (inactive) in the experiment on M14. For the same compound, the GI50 with MDA-MB-435, with MDA-N, with Malme-3M, in the experiment with OVCAR-3, with OVCAR-5 and with OVCAR-8 was > 100 µM (inactive) each time. The GI50 in the experiment on SF-539, in the experiment with SK-MEL-28, in the experiment with SK-MEL-2, in the experiment with SN12C, in the experiment with SNB-19 and in the experiment on TK-10 was > 100 µM (inactive) throughout. Further, the GI50 in the experiment with UACC-62 was > 100 µM (inactive).
With `Cc1c(OCc2ccccc2)c(=O)ccn1CCc1c[nH]c2ccccc12`, the GI50 was 41.3 µM (inactive) in the experiment on EKVX; 74.8 µM with HCT-15; 23.3 µM (inactive) in the experiment with HT-29; 27.2 µM (inactive) in the experiment on Hs-578T; 30 µM (inactive) in the experiment on M14; 20 µM (inactive) with MDA-MB-435. Further, the GI50 in the experiment on MDA-N was 28.7 µM (inactive); in the experiment on Malme-3M it was 22.1 µM (inactive); in the experiment with OVCAR-3, 18.5 µM (inactive); in the experiment on OVCAR-5 it was 65.9 µM (inactive); with OVCAR-8, 53 µM (inactive); with SF-539, 43.4 µM (inactive). For the same compound, the GI50 in the experiment with SK-MEL-2 was 19 µM (inactive); with SN12C, 45.6 µM (inactive); in the experiment on SNB-19 it was 32.7 µM (inactive); in the experiment with TK-10 it was 40.6 µM (inactive); in the experiment with UACC-62, 27.4 µM (inactive).
For the compound `Cc1ccc2c(O)cc(-c3cc(C)sc3C)nc2n1`, the GI50 was 10.8 µM (inactive) with EKVX; 4.05 µM (inactive) in the experiment on HCC 2998; 1.46 µM with HCT-15; 1.53 µM (inactive) in the experiment with HL-60; 4.82 µM (inactive) in the experiment with HT-29; 2.47 µM (inactive) in the experiment on Hs-578T. The GI50 with M14 was 3.2 µM (inactive); in the experiment on MDA-MB-435, 0.351 µM (active); with MDA-N, 0.455 µM (active); in the experiment on Malme-3M, 3.56 µM (inactive); in the experiment on OVCAR-3 it was 3.5 µM (inactive); with OVCAR-5 it was 11.6 µM (inactive). The GI50 was 3.91 µM (inactive) in the experiment with OVCAR-8; 2.3 µM (inactive) in the experiment on SF-539; 5.53 µM (inactive) in the experiment with SK-MEL-28; 6.44 µM (inactive) in the experiment with SN12C; 3.66 µM (inactive) in the experiment with SNB-19; 25.1 µM (inactive) in the experiment with TK-10. The GI50 in the experiment on UACC-62 is 4.88 µM (inactive).
`CCOC(=O)c1c(-c2ccccc2)c(C)cn1C`: the GI50 was > 10 µM (inactive) with EKVX; > 10 µM in the experiment on HCT-15; > 10 µM (inactive) with HT-29; > 10 µM (inactive) with Hs-578T; > 10 µM (inactive) with M14; > 10 µM (inactive) with MDA-MB-435. Moreover, the GI50 in the experiment with MDA-N, with OVCAR-3, with OVCAR-5, in the experiment on OVCAR-8, with SF-539 and with SK-MEL-2 was > 10 µM (inactive) each time. Also, the GI50 in the experiment with SN12C was 3.73 µM (inactive); in the experiment with SNB-19, > 10 µM (inactive); with TK-10, > 10 µM (inactive); in the experiment with UACC-62 it was > 10 µM (inactive).
Consider `COP(=O)(OC)[C@H](O)[C@H]1C[C@@H]1c1ccccc1`, for which the GI50 with EKVX was > 100 µM (inactive); with HCC 2998, > 100 µM (inactive); in the experiment on HCT-15, > 100 µM; with HL-60, > 100 µM (inactive); in the experiment with HT-29 it was > 100 µM (inactive); in the experiment with Hs-578T, 18.9 µM (inactive). Besides, the GI50 in the experiment with M14, in the experiment with MDA-MB-435, in the experiment on Malme-3M, in the experiment with OVCAR-3, in the experiment on OVCAR-5 and in the experiment on OVCAR-8 was > 100 µM (inactive) each time. For the same compound, the GI50 in the experiment on SK-MEL-28, in the experiment on SK-MEL-2, in the experiment on SNB-19, in the experiment on TK-10 and in the experiment on UACC-62 was > 100 µM (inactive) in each case.
